Reference: ChEMBL document CHEMBL1201862, “PubChem BioAssay data set” (2004)
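Values below derive from 48-hour exposures of cells grown in 96-well plates, with endpoints linearly interpolated between the two concentrations bracketing the appropriate inhibition level. GI50: concentration for 50% inhibition of growth.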 Calls of active or inactive are those of the source. Rule as the data show it: active = GI50 up to about 1.1 µM and inactive = higher.

Columns and labels:
Assay in all cases: inhibition of tumour cell growth, NCI panel, 48 h
[1] = tested on: SF-295
[2] = tested on: OVCAR-3
[3] = tested on: KM12
[4] = tested on: SR
[5] = tested on: NCI-H226
[6] = tested on: OVCAR-8
[7] = tested on: A549
[8] = tested on: SK-OV-3
[9] = tested on: SK-MEL-2
[10] = tested on: NCI-H522
[11] = tested on: HCT-116
[12] = tested on: UO-31
[13] = tested on: NCI-H460
[14] = tested on: CCRF-CEM
[15] = tested on: SF-268
[16] = tested on: OVCAR-4
[17] = tested on: HOP-92

Measured: GI50

O=C(/N=c1/[nH]/c(=N/C(=O)c2ccccc2)ss1)c1ccccc1
inactive: [1] 18 µM | [2] 13.1 µM | [3] 27.7 µM | [4] 24 µM | [5] 38.8 µM | [6] 27.3 µM | [7] 11.4 µM | [8] 34.7 µM | [9] 19.4 µM | [10] 5.78 µM | [11] 28.8 µM | [12] 18.5 µM | [13] 16.6 µM | [14] 16 µM | [15] 25.8 µM | [16] 38.1 µM

CCCc1c(C(=O)OCC)[nH]c(C(=O)CCC(=O)c2[nH]c(C(=O)OCC)c(CCC)c2C(=O)OCC)c1C(=O)OCC
inactive: [1] > 100 µM | [2] 68.5 µM | [3] > 100 µM | [4] > 100 µM | [5] > 100 µM | [17] > 100 µM | [6] > 100 µM | [7] > 100 µM | [8] > 100 µM | [9] 68.9 µM | [10] > 100 µM | [11] > 100 µM | [12] > 100 µM | [13] > 100 µM | [14] > 100 µM | [15] > 100 µM | [16] 48.3 µM

Cc1ccc(S(=O)(=O)SCc2ccccc2CSS(=O)(=O)c2ccc(C)cc2)cc1
inactive: [1] 79.8 µM | [2] 20.5 µM | [3] 59.7 µM | [4] 16.1 µM | [5] > 100 µM | [17] 21.7 µM | [6] 24.5 µM | [7] > 100 µM | [8] > 100 µM | [10] 10.9 µM | [11] 21.3 µM | [12] 78.3 µM | [13] 42.2 µM | [15] 36.6 µM | [16] 18.7 µM

N#CCc1ccc(C(C#N)/C(CCCC(=O)Nc2cccc([N+](=O)[O-])c2)=N/NC(N)=S)cc1 (stereo not drawn)
inactive: [1] > 100 µM | [2] 75.3 µM | [3] > 100 µM | [4] > 100 µM | [5] > 100 µM | [17] 83.8 µM | [7] > 100 µM | [8] > 100 µM | [9] > 100 µM | [10] 27.9 µM | [11] > 100 µM | [12] > 100 µM | [13] > 100 µM | [14] 51.6 µM | [15] > 100 µM | [16] > 100 µM

CC(=O)OCC1OC(n2cc(F)c(=O)[nH]c2=O)C(NC(=O)N(CCCl)N=O)C(OC(C)=O)C1OC(C)=O (stereo not drawn)
inactive: [1] 43.1 µM | [2] > 100 µM | [3] > 100 µM | [4] 97.9 µM | [17] > 100 µM | [6] > 100 µM | [7] 89.7 µM | [8] > 100 µM | [10] > 100 µM | [11] > 100 µM | [12] > 100 µM | [13] 18.7 µM | [14] > 100 µM | [15] 17.3 µM | [16] > 100 µM

CCCCN(CCCC)CC(C(C)=O)C(c1ccccc1)c1c(O)c2ccccc2oc1=O (stereo not drawn)
inactive: [1] > 100 µM | [2] > 100 µM | [3] > 100 µM | [4] > 100 µM | [5] > 100 µM | [17] 28 µM | [6] > 100 µM | [7] > 100 µM | [8] > 100 µM | [9] > 100 µM | [10] > 100 µM | [11] > 100 µM | [13] > 100 µM | [14] > 100 µM | [15] > 100 µM | [16] > 100 µM

CCN(CC)C(=O)COc1ccc(Br)cc1Br
inactive: [1] > 100 µM | [2] > 100 µM | [3] > 100 µM | [4] > 100 µM | [5] > 100 µM | [17] 87.5 µM | [7] > 100 µM | [8] > 100 µM | [9] > 100 µM | [10] 50.1 µM | [11] > 100 µM | [12] > 100 µM | [13] > 100 µM | [14] > 100 µM | [15] > 100 µM | [16] > 100 µM

COC(=O)C(C(=O)C(=O)Nc1ccc(C)cc1)c1nc2ccc([N+](=O)[O-])cc2nc1O (stereo not drawn)
inactive: [1] > 100 µM | [2] > 100 µM | [3] > 100 µM | [4] > 100 µM | [5] > 100 µM | [6] > 100 µM | [7] > 100 µM | [8] > 100 µM | [9] > 100 µM | [10] 6.93 µM | [11] > 100 µM | [12] 66.1 µM | [13] > 100 µM | [14] 36.1 µM | [15] > 100 µM | [16] > 100 µM

CC1(C)CCC[C@@]2(C)C1CCC1(C)C(CCc3ccoc3)/C(=C/OS(=O)(=O)O)CCC12 (stereo partly drawn)
inactive: [1] 49.9 µM | [2] > 100 µM | [3] > 100 µM | [4] 23.1 µM | [5] 54.8 µM | [17] 23.9 µM | [6] > 100 µM | [7] > 100 µM | [8] 71.9 µM | [9] 58.5 µM | [11] 16.5 µM | [12] 72.3 µM | [13] > 100 µM | [14] 25.4 µM | [15] > 100 µM | [16] 52.5 µM

CC(C)(c1ccc(C=O)o1)c1ccc(C(C)(C)c2ccc(C=O)o2)o1
inactive: [1] > 100 µM | [3] > 100 µM | [4] > 100 µM | [5] > 100 µM | [17] 69.5 µM | [6] > 100 µM | [7] > 100 µM | [8] > 100 µM | [9] > 100 µM | [10] > 100 µM | [11] > 100 µM | [13] > 100 µM | [14] > 100 µM | [15] > 100 µM | [16] > 100 µM

COc1cc(/C=C(\C#N)C(=O)c2ccccc2)ccc1OCc1ccccc1
inactive: [1] > 100 µM | [2] > 100 µM | [3] > 100 µM | [4] > 100 µM | [5] > 100 µM | [6] > 100 µM | [7] > 100 µM | [8] > 100 µM | [9] > 100 µM | [10] > 100 µM | [11] > 100 µM | [12] > 100 µM | [14] > 100 µM | [16] > 100 µM

Cc1nc(Nc2ccccc2)sc1C(=O)NNc1ccc([N+](=O)[O-])cc1[N+](=O)[O-]
inactive: [1] 27.5 µM | [2] 34.4 µM | [3] 34.4 µM | [4] 14.7 µM | [5] 85.5 µM | [6] 39.2 µM | [7] 93.5 µM | [8] 40.6 µM | [9] 38.5 µM | [10] 19.5 µM | [11] 42.4 µM | [12] 24 µM | [13] 31.9 µM | [14] 14.2 µM | [15] 75.5 µM | [16] 29.6 µM
